From patent US7452887B2, “Quinoline- and isoquinoline-based compounds exhibiting ATP-utilizing enzyme inhibitory activity, and compositions, and uses thereof” (Amphora Discovery Corporation, priority 2004, dated 2008)

Legend:
Assay in all cases: HTS ATP-utilizing enzyme assay, off-chip mobility-shift (Caliper HTS 250)
Format in all cases: biochemical
Details in all cases: test compound 10 μM, kinase listed = active (greater than six-sigma from the mean activity of inactive compounds)
[1] = biological target: C-TAK1 (Homo sapiens, UniProt P27448)
Procedure, shortened: (§1)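 Compounds were tested once at 10 μM against kinase with peptide substrate. After 2.5 hrs at 20° C. to 22° C., reactions were terminated with EDTA, and conversion was read as substrate/product ratio by mobility shift.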

[2] = biological target: T1, DYRK2 (Homo sapiens, UniProt Q92630)
T1 sequence (Q92630 1-601): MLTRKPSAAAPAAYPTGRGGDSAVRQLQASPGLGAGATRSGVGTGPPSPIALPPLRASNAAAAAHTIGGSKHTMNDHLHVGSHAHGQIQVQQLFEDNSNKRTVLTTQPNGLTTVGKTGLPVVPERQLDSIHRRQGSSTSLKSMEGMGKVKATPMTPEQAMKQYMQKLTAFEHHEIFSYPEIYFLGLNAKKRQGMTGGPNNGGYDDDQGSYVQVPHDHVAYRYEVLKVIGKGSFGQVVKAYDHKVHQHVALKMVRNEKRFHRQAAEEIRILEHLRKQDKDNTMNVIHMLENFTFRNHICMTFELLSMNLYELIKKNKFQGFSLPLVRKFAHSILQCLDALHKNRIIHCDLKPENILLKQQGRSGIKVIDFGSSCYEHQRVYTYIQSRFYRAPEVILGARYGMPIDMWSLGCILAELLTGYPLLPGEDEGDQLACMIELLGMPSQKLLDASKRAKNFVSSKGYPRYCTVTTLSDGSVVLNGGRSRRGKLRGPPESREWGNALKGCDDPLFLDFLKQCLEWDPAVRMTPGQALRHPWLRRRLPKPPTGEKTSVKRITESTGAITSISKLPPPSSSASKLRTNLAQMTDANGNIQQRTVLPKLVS
Procedure, shortened: as §1

[3] = biological target: T2, NEK2 (Homo sapiens, UniProt P51955)
T2 sequence (P51955 1-445): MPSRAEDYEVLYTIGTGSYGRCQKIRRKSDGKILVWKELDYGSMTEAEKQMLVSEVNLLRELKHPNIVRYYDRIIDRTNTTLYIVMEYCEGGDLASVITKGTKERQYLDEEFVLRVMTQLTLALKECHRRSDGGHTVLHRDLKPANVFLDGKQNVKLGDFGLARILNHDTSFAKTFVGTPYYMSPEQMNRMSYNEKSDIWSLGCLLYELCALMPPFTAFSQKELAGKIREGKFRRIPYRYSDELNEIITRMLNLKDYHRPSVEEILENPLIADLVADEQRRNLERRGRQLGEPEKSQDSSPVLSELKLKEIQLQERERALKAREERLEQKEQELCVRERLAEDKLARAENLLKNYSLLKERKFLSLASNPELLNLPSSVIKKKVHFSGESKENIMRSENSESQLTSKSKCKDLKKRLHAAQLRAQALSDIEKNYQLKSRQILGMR
Procedure, shortened: as §1

C-TAK1, sequence (P27448 whole entry): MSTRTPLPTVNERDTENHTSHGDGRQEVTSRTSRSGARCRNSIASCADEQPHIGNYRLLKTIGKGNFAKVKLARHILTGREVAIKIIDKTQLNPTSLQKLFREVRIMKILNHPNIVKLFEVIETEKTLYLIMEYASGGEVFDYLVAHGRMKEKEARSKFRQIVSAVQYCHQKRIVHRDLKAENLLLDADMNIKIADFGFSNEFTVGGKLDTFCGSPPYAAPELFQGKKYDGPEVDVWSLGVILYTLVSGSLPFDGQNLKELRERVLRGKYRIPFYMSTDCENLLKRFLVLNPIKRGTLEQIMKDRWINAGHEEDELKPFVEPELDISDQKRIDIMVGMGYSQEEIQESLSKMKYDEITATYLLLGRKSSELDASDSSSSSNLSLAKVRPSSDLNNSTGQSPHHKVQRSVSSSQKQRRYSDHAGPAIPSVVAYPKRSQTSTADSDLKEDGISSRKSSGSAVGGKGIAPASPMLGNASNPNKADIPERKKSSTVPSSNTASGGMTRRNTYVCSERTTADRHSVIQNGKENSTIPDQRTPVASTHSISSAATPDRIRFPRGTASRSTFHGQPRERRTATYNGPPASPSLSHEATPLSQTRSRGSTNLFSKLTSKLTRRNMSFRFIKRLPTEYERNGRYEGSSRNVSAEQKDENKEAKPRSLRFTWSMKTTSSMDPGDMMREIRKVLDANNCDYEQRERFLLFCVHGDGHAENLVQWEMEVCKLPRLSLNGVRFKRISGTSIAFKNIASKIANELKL

SMILES | Activity [1] | Activity [2] | Activity [3]
CN1CCN(c2ccc(Nc3ccnc4ccc(-c5ccc(F)cc5)cc34)cc2)CC1 [6-(4-fluorophenyl)-N-(4-(4-methylpiperazin-1-yl)phenyl)quinolin-4-amine] | C-TAK1 | DYRK2 | NEK2
Cc1ccccc1-c1ccc2nccc(Nc3ccc(N4CCN(C)CC4)cc3)c2c1 [N-(4-(4-methylpiperazin-1-yl)phenyl)-6-o-tolylquinolin-4-amine] |  | DYRK2 | NEK2
COc1ccc(-c2ccc3nccc(N(C)c4ccc(N5CCN(C)CC5)cc4)c3c2)cc1 [6-(4-methoxyphenyl)-N-methyl-N-(4-(4-methylpiperazin-1-yl)phenyl)quinolin-4-amine] |  | DYRK2 | 
CN1CCN(c2ccc(Nc3ccnc4ccc(-c5cccc6ccccc56)cc34)cc2)CC1 [N-(4-(4-methylpiperazin-1-yl)phenyl)-6-(naphthalen-1-yl)quinolin-4-amine] | C-TAK1 |  | NEK2
COc1ccc(-c2ccc3nccc(Nc4ccc(N5CCNCC5)cc4)c3c2)cc1 [6-(4-methoxyphenyl)-N-(4-(piperazin-1-yl)phenyl)quinolin-4-amine] |  | DYRK2 | 
CN1CCN(c2ccc(Nc3ccnc4ccc(-c5ccc(O)cc5)cc34)cc2)CC1 [4-(4-(4-(4-methylpiperazin-1-yl)phenylamino)quinolin-6-yl)phenol] |  | DYRK2 | 
CN1CCN(c2ccc(Nc3ccnc4ccc(-c5ccc6ccccc6c5)cc34)cc2)CC1 [N-(4-(4-methylpiperazin-1-yl)phenyl)-6-(naphthalen-2-yl)quinolin-4-amine] | C-TAK1 | DYRK2 | NEK2
CN1CCN(c2ccc(Nc3ccnc4ccc(-c5ccncc5)cc34)cc2)CC1 [N-(4-(4-methylpiperazin-1-yl)phenyl)-6-(pyridin-4-yl)quinolin-4-amine] |  | DYRK2 | NEK2
